Data taken from ChEMBL document CHEMBL5046252, “Integrin-Mediated Targeted Cancer Therapy Using c(RGDyK)-Based Conjugates of Gemcitabine” (J Med Chem, 2022).
The source made the active and inactive calls. The calls are words filed in the database; no cut-off is given here.

Columns and labels:
WM 266-4 [1] = test: Induction of apoptosis in human WM266-4 cells assessed as viable cells at 1 uM measured after 72 hrs by Annexin V-FITC and PI staining based flow cytometry analysis (reference value: 98.2%); assay type: functional; settings: read-out: Activity
WM 266-4 [2] = test: Induction of apoptosis in human WM266-4 cells assessed as early apoptotic cells at 1 uM measured after 72 hrs by Annexin V-FITC and PI staining based flow cytometry analysis (reference value: 0.2%); assay type: functional
WM 266-4 [3] = test: Induction of apoptosis in human WM266-4 cells assessed as late apoptotic cells at 1 uM measured after 72 hrs by Annexin V-FITC and PI staining based flow cytometry analysis (reference value: 0.5%); assay type: functional
WM 266-4 [4] = test: Induction of apoptosis in human WM266-4 cells assessed as necrotic cells at 1 uM measured after 72 hrs by Annexin V-FITC and PI staining based flow cytometry analysis (reference value: […]); assay type: functional
WM 266-4 [5] = test: Inhibition of clonogenicity in human WM266-4 cells assessed as proportion of cell colonies at 1 uM measured after 72 hrs relative to control; assay type: functional; design: scale not given: the % may be the effect or the level left
WM 266-4 [6] = test: Inhibition of cell growth in human WM266-4 cells measured after 24 hrs; assay type: functional, cell-based; settings: WM 266-4, 24 h
A549 = test: Antiproliferative activity against human A549 cells assessed as inhibition of cell growth measured after 72 hrs by MTT assay; assay type: functional, cell-based; settings: A549, 72 h
WM 266-4 [7] = test: Inhibition of cell invasiveness in human WM266-4 cells at 10 uM measured after 4 hrs by DiffQuick staining based light microscopic analysis; assay type: functional
[8] = Chemostability of the compound in acetate buffer at pH 5.2 measured upto 48 hrs by LC-MS analysis; assay type: physicochemical; settings: pH 5.2, 48 h
[9] = Chemostability of the compound in phosphate buffer assessed as compound hydrolysis at pH 7.4 measured after 7 hrs by LC-MS analysis; assay type: physicochemical; settings: pH 7.4, 7 h
[10] = Chemostability of the compound in phosphate buffer assessed as residual parent compound concentration at pH 7.4 measured after 24 hrs by LC-MS analysis; assay type: physicochemical; settings: read-out: Activity
[11] = Drug metabolism in human plasma assessed as gemcitabine release at 1 ug/ml by LC-MS/MS analysis; assay type: ADME, cell-free; settings: dose 1 µg/ml
[12] = Drug metabolism in human plasma assessed as release of 2',2'-difluorodeoxyuridine metabolite at 1 ug/ml by LC-MS/MS analysis; assay type: ADME, cell-free; settings: dose 1 µg/ml
[13] = Drug metabolism in C57BL/6 naive mouse blood assessed as release of gemcitabine metabolite at 10 mg/kg, ip measured after 0.5 hrs by LC-MS/MS analysis; assay type: ADME, organism-based; settings: in vivo
[14] = Stability of the compound in DMEM-F12 medium measured for 70 hrs by LC-MS/MS analysis; assay type: physicochemical
[15] = Stability of the compound in human plasma at 1 ug/ml measured for 4 hrs by LC-MS/MS analysis; assay type: ADME, cell-free; settings: at 1 µg/mL
[16] = Stability of the compound in human A549 cells assessed as parent compound concentration at 10 uM measured per 2 x 10^6 cells after 4 hrs by LC-MS/MS analysis; assay type: ADME, cell-based; settings: a549, 4 h
[17] = Drug metabolism in human A549 cells assessed as 2',2'-difluorodeoxyuridine metabolite concentration at 10 uM measured per 2X10^5 cells after 24 hrs by LC-MS/MS analysis; assay type: ADME, cell-based; settings: a549, 24 h
[18] = Drug metabolism in human A549 cells assessed as gemcitabine metabolite formation at 10 uM measured per 2 x 10^5 cells after 24 hrs by LC-MS/MS analysis; assay type: ADME, cell-based; settings: a549, 24 h
[19] = Drug uptake in human A549 cells at 20 uM in presence of alphavbeta3 integrin […], c(RGDyK) incubated for 2 hrs by LC-MS analysis; assay type: cell-based; settings: a549, 2 h
[20] = Drug uptake in human A549 cells at 20 uM in presence of alphavbeta3 integrin […]-cilengitide incubated for 2 hrs by LC-MS analysis; assay type: cell-based; settings: a549, 2 h
[21] = Drug uptake in C57BL/6 naive mouse blood at 10 mg/kg, ip measured after 0.25 hrs by LC-MS/MS analysis; assay type: ADME, organism-based; settings: C57BL/6, mouse, whole blood, read-out: Drug uptake
[22] = Drug uptake in C57BL/6 naive mouse blood at 10 mg/kg, ip measured after 0.5 hrs by LC-MS/MS analysis; assay type: ADME, organism-based; settings: C57BL/6, mouse, whole blood, read-out: Drug uptake
[23] = Drug uptake in C57BL/6 naive mouse blood at 10 mg/kg, ip measured after 1 hr by LC-MS/MS analysis; assay type: ADME, organism-based; settings: C57BL/6, mouse, whole blood, read-out: Drug uptake
[24] = Drug uptake in C57BL/6 naive mouse blood at 10 mg/kg, ip measured after 2 hrs by LC-MS/MS analysis; assay type: ADME, organism-based; settings: C57BL/6, mouse, whole blood, read-out: Drug uptake
[25] = Drug uptake in C57BL/6 naive mouse blood at 10 mg/kg, ip measured after 4 hrs by LC-MS/MS analysis; assay type: ADME, organism-based; settings: C57BL/6, mouse, whole blood, read-out: Drug uptake
[26] = Drug uptake in C57BL/6 naive mouse blood at 10 mg/kg, ip measured after 6 hrs by LC-MS/MS analysis; assay type: ADME, organism-based; settings: C57BL/6, mouse, whole blood, read-out: Drug uptake
[27] = Drug uptake in C57BL/6 naive mouse blood at 10 mg/kg, ip measured after 8 hrs by LC-MS/MS analysis; assay type: ADME, organism-based; settings: C57BL/6, mouse, whole blood, read-out: Drug uptake
[28] = Drug uptake in C57BL/6 naive mouse blood at 10 mg/kg, ip measured after 24 hrs by LC-MS/MS analysis; assay type: ADME, organism-based; settings: C57BL/6, mouse, whole blood, read-out: Drug uptake
[29] = Drug metabolism in C57BL/6 naive mouse blood assessed as release of gemcitabine metabolite at 10 mg/kg, ip measured after 0.25 hrs by LC-MS/MS analysis; assay type: ADME, organism-based; settings: in vivo
[30] = Drug metabolism in C57BL/6 naive mouse blood assessed as release of gemcitabine metabolite at 10 mg/kg, ip measured after 1 hr by LC-MS/MS analysis; assay type: ADME, organism-based; settings: in vivo
[31] = Drug metabolism in C57BL/6 naive mouse blood assessed as release of gemcitabine metabolite at 10 mg/kg, ip measured after 2 hrs by LC-MS/MS analysis; assay type: ADME, organism-based; settings: in vivo
[32] = Drug metabolism in C57BL/6 naive mouse blood assessed as release of gemcitabine metabolite at 10 mg/kg, ip measured after 4 hrs by LC-MS/MS analysis; assay type: ADME, organism-based; settings: in vivo
[33] = Drug metabolism in C57BL/6 naive mouse blood assessed as release of gemcitabine metabolite at 10 mg/kg, ip measured after 6 hrs by LC-MS/MS analysis; assay type: ADME, organism-based; settings: in vivo
[34] = Drug metabolism in C57BL/6 naive mouse blood assessed as release of gemcitabine metabolite at 10 mg/kg, ip measured after 8 hrs by LC-MS/MS analysis; assay type: ADME, organism-based; settings: in vivo
[35] = Drug metabolism in C57BL/6 naive mouse blood assessed as release of gemcitabine metabolite at 10 mg/kg, ip measured after 24 hrs by LC-MS/MS analysis; assay type: ADME, organism-based; settings: in vivo
[36] = Stability of the compound in C57BL/6 naive mouse blood at 10 mg/kg, ip measured for 1 hr by LC-MS/MS analysis; assay type: ADME, organism-based; settings: in vivo
[37] = Chemostability of the compound in phosphate buffer buffer at pH 7.4 measured upto 48 hrs by LC-MS analysis; assay type: physicochemical; settings: pH 7.4, 48 h

## Nc1ccn([C@@H]2O[C@H](CO)[C@@H](O)C2(F)F)c(=O)n1 [GEMCITABINE]
WM 266-4 [1]
  viability at 1 µM: 78.3%
WM 266-4 [2]
  Activity: 4.1%
WM 266-4 [3]
  Activity: 5.1%
WM 266-4 [4]
  Activity: 12.4%
WM 266-4 [5]
  Activity: 46.6%
WM 266-4 [6]
  IC50: 17.8 µM
A549
  IC50: 0.0188 µM

## N=C(N)NCCC[C@@H]1NC(=O)[C@H](CCCCN)NC(=O)[C@@H](Cc2ccc(O)cc2)NC(=O)[C@H](CC(=O)O)NC(=O)CNC1=O
WM 266-4 [7]
  inhibition: Active

## N=C(N)NCCC[C@@H]1NC(=O)[C@H](CCCCNC(=O)OCCSSCCOC(=O)OC[C@H]2O[C@@H](n3ccc(N)nc3=O)C(F)(F)[C@@H]2O)NC(=O)[C@@H](Cc2ccc(O)cc2)NC(=O)[C@H](CC(=O)O)NC(=O)CNC1=O
[8]
  Stability: Stable
[9]
  Stability: Unstable
[10]
  remaining at 24 h: 85%
[11]
  Drug metabolism: Metabolite_Detected
[12]
  Drug metabolism: Metabolite_Detected
WM 266-4 [7]
  inhibition: Active
WM 266-4 [1]
  viability at 1 µM: 66.4%
WM 266-4 [2]
  Activity: 0.3%
WM 266-4 [3]
  Activity: 2.2%
WM 266-4 [4]
  Activity: 31.1%
WM 266-4 [5]
  Activity: 4.9%
WM 266-4 [6]
  IC50: > 100 µM
A549
  IC50: 0.0306 µM

## N=C(N)NCCC[C@@H]1NC(=O)[C@H](CCCCNC(=O)OC[C@H]2O[C@@H](n3ccc(N)nc3=O)C(F)(F)[C@@H]2O)NC(=O)[C@@H](Cc2ccc(O)cc2)NC(=O)[C@H](CC(=O)O)NC(=O)CNC1=O
[13]
  Drug metabolism: 33 nM
[8]
  Stability: Stable
[14]
  Stability: Stable
[15]
  Stability: Stable
[16]
  Drug uptake: 5 ng
[17]
  Drug metabolism: 4 ng
[18]
  Drug metabolism: < 0.05 ng
[19]
  Drug uptake: Not Active
[20]
  Drug uptake: Not Active
WM 266-4 [7]
  inhibition: Active
WM 266-4 [1]
  viability at 1 µM: 72.3%
WM 266-4 [2]
  Activity: 1.3%
WM 266-4 [3]
  Activity: 4.8%
WM 266-4 [4]
  Activity: 21.7%
WM 266-4 [5]
  Activity: 8.3%
WM 266-4 [6]
  IC50: 57.6 µM
A549
  IC50: 0.678 µM
[21]
  concentration at 0.25 h: 6.66 µM
[22]
  concentration at 0.5 h: 8.47 µM
[23]
  concentration at 1 h: 3.32 µM
[24]
  concentration at 2 h: 0.547 µM
[25]
  concentration at 4 h: 0.038 µM
[26]
  concentration at 6 h: 0.168 µM
[27]
  concentration at 8 h: 0.011 µM
[28]
  concentration at 24 h: 0.014 µM
[29]
  Drug metabolism: 748 nM
[30]
  Drug metabolism: 46 nM
[31]
  Drug metabolism: 6 nM
[32]
  Drug metabolism: 7 nM
[33]
  Drug metabolism: 11 nM
[34]
  Drug metabolism: 40 nM
[35]
  Drug metabolism: 3 nM
[36]
  Stability: Stable
[37]
  Stability: Stable
